# In US12419890B2, “Administration of sumo-activating enzyme inhibitor and checkpoint inhibitors” (Takeda Pharmaceutical Company Limited, priority 2019, dated 2025):
# System: JC syngeneic mouse breast adenocarcinoma-derived subcutaneous tumor
# Experiment: JC Study 6: mouse JC syngeneic tumor model, individual tumor volume
# Assay type: in vivo
# Conditions: Compound I-263a 7.5 mg/kg IV or anti-mPD-1 10 mg/kg IP, BIWx3 till Day 14
# Protocol: JC Study 6: JC is a mouse breast adenocarcinoma cell line. JC mouse syngeneic tumor model was generated by subcutaneous inoculation with 0.2×10^6 JC cells (cell suspension) in 10 weeks old female BALB/c mice (Vital River Laboratory Animal Technology Co., Ltd., Beijing, China) in the flank. When the mean tumor volume reached approximately 45 mm^3, the animals were randomized into one vehicle control and five treatment groups (n=8/group). Mice were then dosed with 20% HPbCD or Compound I-263a or anti-mouse PD-1 antibody over a 21-day period. Tumor growth and body weight were measured twice per week during the treatment and post-treatment periods, and mice were humanely euthanized once they had reached their humane endpoint.
# Study 6: A 0.75 mg/mL stock solution of Compound I-263a was formulated weekly in 20% HPβCD and administered intravenously (IV) based on exact animal body weight on each day of treatment, using a dosing volume of 10 mL/kg body weight. Final doses received were 7.5 mg/kg. Dosing volume for Compound I-263a was 0.2 mL. […]
# Tumors were measured twice weekly using vernier calipers. Tumor volumes were calculated using standard equation: V=W^2×L/2, where V=volume, W=width, and L=length for the tumor. […] Tumor size and body weight were measured twice a week for the duration of the study. […]
smiles,measurement,setting,value
"Cc1sc(C(=O)c2cncnc2N[C@@H]2C[C@H](COS(N)(=O)=O)[C@@H](O)C2)cc1[C@@H]1NCCc2ccc(Cl)cc21 [Compound I-263a, [(1R,2S,4R)-4-{[5-({4-[(1R)-7-chloro-1,2,3,4-tetrahydroisoquinolin-1-yl]-5-methyl-2-thienyl}carbonyl)pyrimidin-4-yl]amino}-2-hydroxycyclopentyl]methyl sulfamate]",tumor growth inhibition / antitumor activity,8 tumors/group,very little tumor growth inhibition
same,tumors with slight growth delay,"delay from day 16-18, out of 8 implanted",one
